Reference: PMC9108603, “Microbial Metabolite Inspired β‐Peptide Polymers Displaying Potent and Selective Antifungal Activity” (Advanced Science, 2022)
Values after ≈ are worked out from the molar mass of the structure shown. Where two headings read alike, the source gives them in different places.

Key:
[1] = system: endothelial cells (HUVEC); assay: Cytotoxicity, MTT assay; type: cell-based, human; details: Homo sapiens, HUVEC, 24 h, 37 °C, 800 to 1.6 μg/mL, 50% cell viability
Protocol: (§1) Cytotoxicity assay. Cytotoxicity tests were performed on NIH 3T3 fibroblast cells, endothelial cells (HUVEC), macrophage (RAW264.7), liver cells (LO2), kidney cells (COS7) and enterocyte (NCM-460) using MTT assay. Cells were cultured in DMEM supplemented with 10% FBS, 5% penicillin, 2 mM L-glutamine and incubated at 37 °C in 5% CO 2. Cells were harvested and seeded onto 96-well plates at a density of 1.0 × 10^4 cells per well and incubated for 24 h. On each plate, wells containing growth medium only and cells in growth medium without any antifungal agent were used as the negative and positive control, […]
concentrations ranging from 800 to 1.6 μg/mL. Medium in each cell-containing well was replaced with 100 μL of the corresponding polymer solution, and the plates were incubated at 37 °C for 24 h. Then, the solution in each well was switched to 100 µL MTT solution (1 mg/mL) and the plate was incubated in the dark at 37 °C for 4 h. […] Then 85 µL of the supernatant from each well was transferred to the corresponding well in a new plate, followed by absorbance measurement at 570 nm on a plate reader. […] The percentage of cell viability in each test well, relative to the positive control (which defines 100%) w as calculated from [% fibroblast growth = (A polymer – Ablank)/(Acontrol – A blank) × 100]. […]

C. neoformans = assay: MIC assay (in vitro antifungal assay); type: cell-based; details: Cryptococcus neoformans, 48 h
Protocol: In vitro antifungal assays. The MIC assays for C. albicans (K1, SC5314, Gu5, ATCC90028, R01, R02, R03 and R04 strains) and C. neoformans (H99, MYA737 and JEC21 strains) were conducted according to a previously described protocol. The cultured fungal cells were collected at 2.5 × 10^3 CFU/mL in RPMI 1640 medium to give the working suspension. Two- […]
plate to give 50 µL compound solution in each well. Then 50 µL of the cell suspension was added to each well. Wells containing cells in RPMI without any polymer or antifungal drug were used as drug-free controls, and wells containing RPMI medium only were used as cell-free controls. The plate was gently stirred for 10 seconds and then incubated at 30 °C. After C. albicans and C. neoformans cells were incubated for 24 h and 48 h, respectively, fungal cell growth was checked visually. […]

kidney cells (COS7) = assay: Cytotoxicity, MTT assay; type: cell-based; details: Chlorocebus aethiops, COS-7, 24 h, 37 °C, 800 to 1.6 μg/mL, 50% cell viability
Protocol: as §1
(§2) concentrations ranging from 800 to 1.6 μg/mL. Medium in each cell-containing well was replaced with 100 μL of the corresponding polymer solution, and the plates were incubated at 37 °C for 24 h. Then, the solution in each well was switched to 100 µL MTT solution (1 mg/mL) and the plate was incubated in the dark at 37 °C for 4 h. After centrifuge (to prevent the possible loss of formazan crystals) and removal of the supernatant, 100 μL DMSO was added to each well to dissolve the formed formazan under stirred for 20 min. Then 85 µL of the supernatant from each well was transferred to the corresponding well in a new plate, followed by absorbance measurement at 570 nm on a plate reader. Each antifungal agent was tested in triplicate in each assay, and the experiment was conducted at least twice on a different day. The percentage of cell viability in each test well, relative to the positive control (which defines 100%) w as calculated from [% fibroblast growth = (A polymer – Ablank)/(Acontrol – A blank) × 100]. The IC 50 value is the minimum concentration to inhibit 50% of fibroblast cell growth. All measurements were performed with three replicates.

liver cells (LO2) = assay: Cytotoxicity, MTT assay; type: cell-based; details: 24 h, 37 °C, 800 to 1.6 μg/mL, 50% cell viability
Protocol: as §1, §2

enterocyte (NCM-460) = assay: Cytotoxicity, MTT assay; type: cell-based; details: Homo sapiens, NCM460, 24 h, 37 °C, 800 to 1.6 μg/mL, 50% cell viability
Protocol: as §1, §2

NIH 3T3 fibroblast cells = assay: Cytotoxicity, MTT assay; type: cell-based; details: Mus musculus, NIH3T3, 24 h, 37 °C, 800 to 1.6 μg/mL, 50% cell viability
Protocol: as §1, §2

macrophage (RAW264.7) = assay: Cytotoxicity, MTT assay; type: cell-based; details: Mus musculus, 24 h, 37 °C, 800 to 1.6 μg/mL, 50% cell viability
Protocol: as §1, §2

C. albicans (K1 strain) = assay: Killing efficiency under energy depletion; type: cell-based, Candida albicans; details: 2 × MFC (50 μg/mL), colony count, n = 3
Protocol: Energy depletion analysis. For energy depletion experiments, cell suspension of C. albicans (K1 strain) at 3.0 × 10^6 CFU/mL was pretreated with RPMI containing 5 mM NaN 3 for 1 h. For antifungal efficiency assay, a fresh cell suspension pretreated or non-pretreated with NaN 3 were incubated with 50 μg/mL PDAP 20 or without an antifungal agent (as energy depletion control) for 24 h. The fresh cell suspension without antifungal agents before and after incubation with NaN 3 for 24 h were used as the controls, respectively. The suspensions were diluted and plated on YPD agar. The plates were incubated at 30 °C for 24 h and colony amounts were counted. The cell viability after incubation at 4 °C with 50 μg/mL PDAP 20 or without an antifungal agent (as positive control) was measured using the same method.
For the confocal assay, a fresh cell suspension pretreated or non-pretreated with NaN 3 was incubated with 50 μg/mL CPM-PDAP 20 for 24 h, respectively. […]
For flow cytometry experiment, a fresh cell suspension pretreated or non-pretreated with NaN 3 was incubated with 50 μg/mL CPM-PDAP 20 for 1 h and 2 h, respectively. Fungal cells were washed by PBS to remove polymers, and 5.0 × 10^4 cells were counted and anaysized. The polymer uptake was calculated by flow cytometry (Backman). Furthermore, cell suspensions were incubated with 10 μg/mL PI for 10 min for calculated PI uptake. […]

**Q.** How did the IC50 [1] turn out when C[C@@H]1[C@H](O)[C@@H](C)/C=C/C=C/C=C/C=C/C=C/C=C/C=C/[C@H](O[C@@H]2O[C@H](C)[C@@H](O)[C@H](N)[C@@H]2O)C[C@@H]2O[C@](O)(C[C@@H](O)C[C@@H](O)[C@H](O)CC[C@@H](O)C[C@@H](O)CC(=O)O[C@H]1C)C[C@H](O)[C@H]2C(=O)O [AmpB, amphotericin B] was run?
**A.** 8.8 µg/mL (≈ 9.52 µM)

**Q.** And the MIC (C. neoformans; read-out: MIC C. neoformans H99)?
**A.** 1.6 µg/mL (≈ 1.73 µM)

**Q.** What about the MIC (C. neoformans; read-out: MIC C. neoformans JEC21) of the same compound?
**A.** 1.6 µg/mL (≈ 1.73 µM)

**Q.** What about the MIC (C. neoformans; read-out: MIC C. neoformans MYA737) of the same compound?
**A.** 1.6 µg/mL (≈ 1.73 µM)

**Q.** And the IC50 (kidney cells (COS7))?
**A.** 25 µg/mL (≈ 27.1 µM)

**Q.** And the IC50 (liver cells (LO2))?
**A.** 77 µg/mL (≈ 83.3 µM)

**Q.** And the IC50 (enterocyte (NCM-460))?
**A.** 40 µg/mL (≈ 43.3 µM)

**Q.** What about the IC50 (NIH 3T3 fibroblast cells) of the same compound?
**A.** 1.6 µg/mL (≈ 1.73 µM)

**Q.** What about the IC50 (macrophage (RAW264.7)) of the same compound?
**A.** 128 µg/mL (≈ 139 µM)

**Q.** poly(DL‐diaminopropionic acid) [PDAP20] was tested. Which “Fungal cells killed under energy depletion, NaN3” value (C. albicans (K1 strain); 5 × 10^−3 M NaN3, 3.0 × 10^6 CFU/mL, 24 h) did it give?
**A.** about 88%

**Q.** And the “Fungal cells killed under energy depletion, 4°C” value (C. albicans (K1 strain); at 4°C)?
**A.** about 88%
